Results: patent US11185077B2, “Attractants for rodents” (priority 2016, dated 2021)

Tested on: wild house mice, Mus musculus
Assay: Field experiments with paired trap boxes: trap captures of wild mice
Format: in vivo
Text: Two field experiments were run in parallel from Feb. 4, 2016 to Apr. 14, 2016 in Vancouver B.C. to evaluate the effect of synthetic androstenone (Experiment 7) and of synthetic progesterone and estrogen (Experiment 8) on trap captures of wild mice. Experimental replicates were set up as depicted in FIG. 7 along the interior walls and bird feeder areas of a plant and bird conservatory maintained under tropical conditions. Each replicate consisted of a pair of trap boxes (PROTECTA® Mouse, Bell Laboratories Inc., Madison, Wis. 53704, USA), with 50-cm spacing between boxes in each pair, and at least 2 m between pairs.
In Experiments 7 and 8, each box in each pair contained a snap trap (1) (FIG. 7) that was baited with a food lure (Musso et al. 2014). In Experiment 7, the trap box was also baited with the synthetic two-component sex pheromone of male mice (3,4-dehydro-exo-brevicomin and 2-sec-butyl-4,5-dihydrothiazole). The compounds were formulated in 10 g of mineral oil and dispensed from a custom-made scintillation vial (2) (FIG. 7). Each box in each pair also contained a piece of Whatman #1 filter paper that by random assignment was treated with 4 μg of synthetic androstenone dissolved in 50 μl ether (3a) or 50 μl ether (control; 4). […]
All boxes and snap traps in both experiments were checked every 48 h to 72 h, and test stimuli (food lure, male-specific pheromone blend in mineral oil, filter paper with or without hormones) were replaced at each visit.
Mouse captures in treatment and control traps were compared against an expected 50:50 distribution using χ^2 tests with Yates' correction for continuity (α=0.05). Replicates with captures in both trap boxes of a pair are not included in the graphical illustration and statistical analyses of data.
Four field experiments were run in Vancouver B.C. to evaluate the effect of synthetic androstenone and synthetic testosterone on captures of female wild mice and rats in combination with species-specific male sex pheromone blend. Experimental replicates were set up along the interior and exterior walls of buildings as depicted in FIG. 7. Experiment 15 evaluated captures of wild mice in trap boxes baited with high-levels of androstenone; Experiment 16 evaluated captures of wild rats in traps baited with high-levels of androstenone; Experiment 17 evaluated captures of wild mice in traps baited with low-levels of testosterone; and Experiment 18 evaluated captures of wild mice in traps baited with low-levels of androstenone. Experiment 15 was run from Feb. 4, 2016 to Apr. 14, 2016. Experiment 16 was run from Feb. 26, 2016 to Sep. 19, 2016. Experiments 17 and 18 were run in parallel from Jun. 2, 2016 to Sep. 8, 2016.
Each replicate of Experiments 15 to 18 consisted of a pair of trap boxes (Mice: PROTECTA® Mouse, Bell Laboratories Inc., Madison, Wis. 53704, USA; Rats: PROTECTA® Sidekick™; Bell Laboratories Inc., Madison, Wis. 53704), with 50-cm spacing between boxes in each pair, and at least 2 m between pairs. Each trap box contained an armed snap trap (1, Mice: Victor® Easy Set® Mouse Trap; Rats: Victor® Easy Set® Rat Trap; Woodstream Corp, Lititz, Pa. 17543, USA) baited with a cereal-based food bait and a scintillation vial (2) containing synthetic sex pheromone blends. Each box in each pair also contained a treatment stimulus that consisted of a piece of Whatman #1 filter paper (3a) that by random assignment was treated with: 4 μg of synthetic androstenone dissolved in 50 μl ether (Experiments 15 and 16); 750 μg of synthetic testosterone dissolved in 50 μl ether (Experiment 17); or 750 μg of synthetic androstenone dissolved in 50 μl ether (Experiment 18). The corresponding box in each pair contained a control stimulus which consisted of a piece of Whatman #1 filter paper (3b) treated with 50 μl ether. […]

[1] = Experiment 7, 4 μg synthetic androstenone, boxes also with food lure and male mouse sex pheromone
[2] = Experiment 15, 4 μg synthetic androstenone, with food bait and male mouse sex pheromone blend
[3] = Experiment 17, 750 μg synthetic testosterone (low-levels), with food bait and male mouse sex pheromone blend

## C[C@]12CCC(=O)C[C@@H]1CC[C@@H]1[C@@H]2CC[C@]2(C)C=CC[C@@H]12 [androstenone, 5α-androst-16-en-3-one]
[1]
  captures of adult female mice vs control boxes: significantly more
  captures of juvenile female mice vs control boxes: significantly more
Experiment 15, 4 μg synthetic androstenone
  captures of juvenile and adult male mice: no significant effect
[2]
  captures of adult female mice vs control boxes: significantly more
  captures of juvenile female mice vs control boxes: significantly more
Experiment 18, 750 μg synthetic androstenone (low-levels)
  captures of juvenile and adult male mice: no significant effect
Experiment 18, 750 μg synthetic androstenone (low-levels), with food bait and male mouse sex pheromone blend
  captures of female mice vs control traps: did not differ statistically

## C[C@]12CC[C@H]3[C@@H](CCC4=CC(=O)CC[C@@]43C)[C@@H]1CC[C@@H]2O [testosterone, (8R,9S,10R,13S,14S,17S)-17-hydroxy-10,13-dimethyl-1,2,6,7,8,9,11,12,14,15,16,17-dodecahydrocyclopenta[a]phenanthren-3-one, reference compound]
Experiment 17, 750 μg synthetic testosterone (low-levels)
  captures of both adult and juvenile mice: no significant effect
[3]
  captures of adult female mice vs control traps: significantly more
  captures of juvenile female mice vs control traps: significantly more
